≈ marks a conversion by molar mass, not a printed value. Where “and” joins values, the source holds several entries; their conditions need not be identical. Identical values can stand only once. Like-named read-outs stand apart in the source and are kept apart here.
Columns and labels:
Mycoplasma pneumoniae = system: Mycoplasma pneumoniae
Procedure: Two library strains of Mycoplasma pneumoniae were used. These strains were stored at GR Micro Ltd. and maintained, with minimal sub-culture, deep frozen at −70° C. as a dense suspension in a high protein matrix of undiluted horse serum.
MIC determination was carried out using a broth microdilution method in Mycoplasma Broth Base (Oxoid Ltd, Hampshire, UK), prepared according to the manufacturer's instructions.

MDCK-II cells = settings: 1% LTX-109 (w/v) in PBS, 1 h, after filtration, no virus; dilution up to which cytotoxicity on MDCK-II cells was seen
Procedure: (§1) A parallel test where the same procedure was carried out in the absence of virus was included to determine any residual cytotoxic effect of the formulation on the assay cells.

HeLa cells [1] = assay: Parallel test without virus for residual cytotoxicity (Example 7); format: cell-based, human; settings: 3% LTX-109 (w/v) or 0.25% SDS, after dilution (50 μl in 5 ml), no virus
Procedure: as §1

[2] = system: Influenza A virus (IAV; A/WSN/33); format: cell-based
[3] = system: Respiratory Syncytial Virus (RSV); assay: TCID50 assay after 1 h incubation of virus with LTX-109 (Example 2); format: cell-based; settings: for Percentage: decrease in RSV infectivity, compared to PBS control
Procedure: To test whether 1% LTX-109 (w/v) and 0.1% LTX-109 (w/v) have antiviral activity against RSV, 1×10^5 infectious units of RSV (40 μl) were incubated with four volumes of 1% LTX-109 or 0.1% LTX-109 dissolved in PBS (160 μl) or a PBS (Phosphate-buffered saline) control. The experiment was performed in triplicates.
After 1 hour, the incubation was stopped by adding an excess of cold media, and the formulation was physically separated from the virus through a filter to reduce cytotoxicity on the assay cells. Some cloudiness in the preparation was observed, particularly for the 1% formulation, but no precipitation. Infectious virus was quantified through a serial dilution (a series of ten-fold dilutions) on monolayers of Hep2 cells in microtitre plates (Hep2 cells are mammalian cells capable of displaying a cytopathic effect (CPE) upon viral infection). The starting solution for the serial dilution (i.e. the neat (or undiluted) solution) was obtained by re-suspending the virus that was separated via the filtration step in 1 ml of media. For each dilution of the virus in the dilution series, eight wells of the microtitre plate were tested (i.e. each dilution of virus was applied to eight separate wells, each well containing a Hep2 cell monolayer). Appropriate controls were also performed. […] The TCID50 (TCID50/ml) assay (Tissue Culture Infectious Dose 50 assay) is a type of endpoint dilution assay that is well known in the art and routinely used to quantitatively measure virus titres. TCID50/ml provides a measure of infectious units of virus/ml. “/ml” refers to/ml of the starting solution (i.e. neat/undiluted solution) mentioned above.

HeLa cells [4] = settings: 1% LTX-109 (w/v) or 0.25% SDS, after filtration, no virus, dilution showing cytotoxicity
Procedure: as §1

In the case of `CC(C)(C)c1cc(C(C)(C)C)c2[nH]c(C(C)(C)C)c(CC(NC(=O)C(N)CCCNC(=N)N)C(=O)NC(CCCNC(=N)N)C(=O)NCCc3ccccc3)c2c1` (centres unmarked) [LTX-109], the MIC (Mycoplasma pneumoniae; one of the library strains of Mycoplasma pneumoniae) is reported as 32 mg/L (≈ 40.6 µM), the MIC (Mycoplasma pneumoniae; the other of the library strains of Mycoplasma pneumoniae) is reported as 16 mg/L (≈ 20.3 µM) and the “With Filtration (cytotoxicity)” value (MDCK-II cells) is reported as “Up to 10^−1”. The Cytotoxicity (HeLa cells [1]) was “Neat”, the Log [2] was 1.20 and the Percentage [2] was 99.9% and 99.969%. For the same molecule, the Percentage ([3]; 0.1% LTX-109, 1 h) was 99.9% and 99.97%, the Percentage ([3]; 1% LTX-109, 1 h) was 99.9% and 99.949% and the Log ([3]; log of RSV titre after 1 h with 0.1% LTX-109) was 1.78. For the same molecule, the Log ([3]; log of RSV titre after 1 h with 1% LTX-109) was 2.20 and the Cytotoxicity (HeLa cells [4]) was “Neat”.
